The record followed here is US20040043940A1, “Use of ectoin or ectoin derivatives for protecting stress proteins in the skin” (priority 2000, published 2004).

The assay relates to HSP 72/73. Kind of assay: Heat-shock induction of HSP 72/73 stress proteins in primary human keratinocytes (immunofluorescence). It counts as cell-based. The method, then: This was ascertained by spreading primary human keratinocytes on microscopic slides and cultivating them over a period of 3 days at 37° C. in KGM 2 medium (Cell Systems). The human keratinocytes were incubated to a confluence of approximately 60% and part of the culture was then treated with 1% ectoin based on the supernatant of the culture medium. The untreated portion of the culture served as control. Following treatment, the human keratinocytes were incubated for a further 16 hours at 37° C. The cultures were then subjected to heat shock by raising the temperature quickly from 37° C. to 44° C. The experiments were carried out by the method proposed by Holland et al in J. Invest Dermatol. (1993), 101: 196-199. Following this heat-shock treatment, incubation was carried out at 37° C. for a further 2 hours. The cells were then fixed. Fixing was carried out in 3 stages:
fixing solution A (1% CH3COOH/40% ethanol in deionized water v/v, 4° C.), 5 min,
fixing solution B (96% ethanol in deionized water v/v, 4° C.), 5 min,
fixing solution A, 5 min.
The stress proteins produced were stained by immunofluorescence, which process involved the following steps:
blockage of non-specific bonding sites with a blocking agent (10% BSA in phosphate buffer): 45 min, 37° C.,
incubation with the primary antibody anti HSP 72/73 (1:200 dilution in phosphate buffer): 45 min, 37° C.,
incubation with the FITC-conjugated secondary antibody goat anti mouse (1:200 dilution in phosphate buffer): 45 min, 37° C.,
covering of the specimens with fluorescent covering medium and slide cover glasses.
The stess proteins were determined quantitatively as HSP 72/73 under a microscope (BX40, filter: WB, burner: U-RFL-T, Olympus).

Consider `CC1=N[C@H](C(=O)O)CCN1` [ectoin, (S)-1,4,5,6-tetrahydro-2-methyl-4-pyrimidinecarboxylic acid], for which the “protection of human skin cells against stress factors” value (in vitro, ectoin-treated versus untreated skin cells) was “significantly better”. For the same compound, the “induction of HSP 72/73 stress proteins” value (primary human keratinocytes, 1% ectoin pretreatment 16 hours, heat shock 37° C. to 44° C., compared with untreated cultures) is “significantly faster”. For the same compound, the “period until HSP 72/73 concentration maximum” value (primary human keratinocytes, 1% ectoin pretreatment, heat shock 44° C., untreated cells 60 minutes) came out at 30 min.
